Paper PMC11062894, “Protein-based bandpass filters for controlling cellular signaling with chemical inputs” (Nature Chemical Biology, 2023)
“And” between values parts separate entries of the source, which are not always exact repeats. Identical values can stand only once.

System: GEMS receptors with CBPA11 (BclXL–LD3 and BclXLhigh variants), STAT3-driven SEAP in HEK293T cells
Test: GEMS SEAP reporter assay, CBPA11 (BclXLhigh, LD3-v and BclXL-v variants) with A-1155463
Format: cell-based
Design: key to Raw data (SEAP) / SEAP, replicate values / Raw data of Figure 5b / Raw data Figure 5e / Raw data of Independent repeat of CBPA11-v1 vs CBPA11-v1-LD3v3 / Raw data of Independent repeat of CBPA11-v3 vs CBPA11-v3-LD3v3 / Raw data of Figure 5b, CBPA11-v1-LD3v3 (SEAP reporter raw value, single replicate) / Raw data of Figure 5b, CBPA11-v1 (SEAP reporter raw value, single replicate): SEAP activity in U/L in culture supernatant
Source text: To rationally design a CBP responding to a chemical input, we used BclXL as the druglow receptor, LD3 as the designed binder and a designed BclXL variant as the drughigh receptor (referred to as BclXLhigh) to construct a CBP responsive to BclXL inhibitors (Fig. 4a). To design BclXLhigh, we used a multistate design computational protocol described elsewhere[26] […] Thus, BclXLhigh-v(1–3) were chosen as the functional drughigh receptors, resulting in three A-1155463-controlled CBPs (referred to as CBPA11-v(1–3)) (Fig. 4c–e).
HEK293T cells were seeded in a 96-well plate 24 h before transfection. The transfection mix in each well consisted of 3 ng of constitutive human CMV promoter driven mammalian STAT3 expression vector (PhCMV-STAT3-pA), 30 ng of STAT3-induced reporter expression (OStat3-PhCMVmin-SEAP-pA) and 50 ng of expression vectors for each GEMS receptor chain (PSV40-IgK-(drughigh receptor)-EpoRm-IL-6RBm-pA and PSV40-IgK-(druglow receptor-GGGGSX3-LD3)-EpoRm-IL-6RBm-pA). For the specific drughigh receptor and druglow receptor used in the different cellular assays, they are indicated as wild type or with mutations. Then, plasmid DNA was mixed with 50 μl opti-MEM (Thermo Fisher) and 600 ng of polyethyleneimine (Polysciences, catalog no. 24765-1). For drug treatment experiments, drugs were added 12 h post-transfection and incubated with cells for 24 h before the SEAP reporter detection assay.
SEAP activity (U l^−1) in cell culture supernatants was quantified by kinetic measurements at 405 nm (1 minute per measurement for 30 cycles) of absorbance increase due to phosphatase-mediated hydrolysis of para-nitrophenyl phosphate (pNPP).
Binding affinities of SPR drug competition assays were calculated using three-parameter nonlinear regression in GraphPad Prism (v.8.3.0). Representative data of cell assays are presented as individual values and mean values (bars). n = 3 refers to biological replicates. All IC50 or EC50 values of cell assays reported were calculated using four-parameter nonlinear regression ± s.d. Bandpass features of cutoff concentrations and Bandwidth90% were estimated based on the curve fitted using bell-shaped curve nonlinear regression in GraphPad Prism (v.8.3.0). […]
Supplementary Figure 4: Design, screening and validation of BclXLhigh variants. a) Screening of BclXLhigh variants in the GEMS platform. […]
Dissociation constant measurement of BclXLhigh-v(1-3) and LD3. Equilibrium curves are fitted using […]
BclXLhigh-v1 (purple), BclXLhigh-v2 (blue), […]
a) Bcl2high-based bandpass filter designs were developed and to respond to different concentrations of […]
corresponding inhibitor. c) Screening of Bcl2high-based bandpass filter variants in the GEMS platform.
The designed binder LD3 was fused to the druglow-receptor (PSV40-IgK-Bcl2-LD3-EpoRm-IL-6RBm-pA) in one EpoR chain and Bcl2high variants with the insensitive Bcl2 (iBcl2) as control in the other EpoR chain (PSV40-IgK-Bcl2high-EpoRm-IL-6RBm-pA). HEK293T cells were transfected with indicated […]
the mean of six biological replicates ± s.d., overlaid with a scatter dot plot of the original data points.
(1 picture or pasted object on this page, not shown here)
Supplementary Figure 6: Binding affinities and drug resistances of Bcl2high-v(2,4,5) assessed by […]
a) Measurement of dissociation constants for Bcl2high-v(2,4,5) and LD3 interactions. Equilibrium curves […]
Bcl2high-v(2,4,5) measured by SPR. 5 μM of Bcl2 or indicated variants were mixed with 10 μM of […]
Bcl2high-v2 (red), Bcl2high-v4
Supplementary Figure 7: Screening of LD3 variants in CBPA11-v(1-3) and raw data of CBPA11-v(1,3) with LD3-v3 variant. a-c) Screening of LD3 and LD3-v(1-3) variants in complex with BclXL for more sensitive CBPA11-v1 (a), CBPA11-v2 (b), CBPA11-v3 (c) in the GEMS platform. The LD3 variants replaced the role of LD3 (PSV40-IgK-BclXL-LD3-v(1-3)-EpoRm-IL-6RBm-pA) in one EpoR chain and BclXLhigh-v(1-3) in the other EpoR chain (PSV40-IgK-BclXLhigh-V(1-3)-EpoRm-IL-6RBm-pA). HEK293T cells were transfected with […]

## CN(C)CC#Cc1ccc(OCCCc2sc(N3CCc4cccc(C(=O)Nc5nc6ccccc6s5)c4C3)nc2C(=O)O)c(F)c1 [A-1155463]
A-1155463 10000 nM, construct CBPA11-v1-LD3v3, three replicate columns
  Raw data of Figure 5b, CBPA11-v1-LD3v3 (SEAP reporter raw value, single replicate): 23.9254 and 24.8005 and 21.4423
A-1155463 10000 nM, construct CBPA11-v1, three replicate columns
  Raw data of Figure 5b, CBPA11-v1 (SEAP reporter raw value, single replicate): 69.4522 and 75.5808 and 84.1281
CBPA11-v1, A-1155463 0.01 nM
  Raw data of Independent repeat of CBPA11-v1 vs CBPA11-v1-LD3v3: 21.5154 and 21.2395 and 24.0629
CBPA11-v1, A-1155463 1 nM
  Normalized data Figure 5e: 6.4824 and 7.053 and 8.837
  Normalized data of Figure 5b: 1.402 and 1.595 and 1.731
  Raw data of Figure 5b: 11.9307 and 13.3631 and 14.4518
  Raw data of Independent repeat of CBPA11-v1 vs CBPA11-v1-LD3v3: 71.2806 and 66.4229 and 63.7452
CBPA11-v1, A-1155463 3.16 nM
  Raw data of Independent repeat of CBPA11-v1 vs CBPA11-v1-LD3v3: 80.0965 and 82.8427 and 80.4448
CBPA11-v1, A-1155463 3.18 nM
  Normalized data Figure 5e: 7.202 and 10.0096 and 11.7189
CBPA11-v1, A-1155463 10 nM
  Normalized data Figure 5e: 46.8388 and 51.1661 and 51.2149
  Normalized data of Figure 5b: 14.5535 and 13.2638 and 13.0086
  Raw data of Figure 5b: 123.839 and 111.135 and 108.599
  Raw data of Independent repeat of CBPA11-v1 vs CBPA11-v1-LD3v3: 462.474 and 463.658 and 418.386
CBPA11-v1, A-1155463 31.6 nM
  Raw data of Independent repeat of CBPA11-v1 vs CBPA11-v1-LD3v3: 571.289 and 570.216 and 457.441
CBPA11-v1, A-1155463 31.8 nM
  Normalized data Figure 5e: 63.7218 and 71.158 and 71.088
  Normalized data of Figure 5b: 45.8074 and 33.2331 and 44.7698
  Raw data of Figure 5b: 389.784 and 278.454 and 373.749
CBPA11-v1, A-1155463 100 nM
  Normalized data Figure 5e: 98.9083 and 100
  Normalized data of Figure 5b: 66.3164 and 72.6195 and 72.7718
  Raw data of Figure 5b: 564.299 and 608.466 and 607.516
  Raw data of Independent repeat of CBPA11-v1 vs CBPA11-v1-LD3v3: 770.33 and 757.162 and 752.74
CBPA11-v1, A-1155463 316 nM
  Raw data of Independent repeat of CBPA11-v1 vs CBPA11-v1-LD3v3: 692.583 and 694.97 and 762.999
CBPA11-v1, A-1155463 318 nM
  Normalized data Figure 5e: 100 and 89.6838 and 88.8002
  Normalized data of Figure 5b: 100
  Raw data of Figure 5b: 850.92 and 837.883 and 834.824
CBPA11-v1, A-1155463 1000 nM
  Normalized data Figure 5e: 87.8736 and 79.7319 and 71.766
  Normalized data of Figure 5b: 69.8009 and 76.8483 and 84.4115
  Raw data of Figure 5b: 593.95 and 643.898 and 704.687
  Raw data of Independent repeat of CBPA11-v1 vs CBPA11-v1-LD3v3: 543.865 and 540.678 and 577.914
CBPA11-v1, A-1155463 3160 nM
  Raw data of Independent repeat of CBPA11-v1 vs CBPA11-v1-LD3v3: 413.782 and 413.648 and 344.2
CBPA11-v1, A-1155463 3180 nM
  Normalized data Figure 5e: 51.7606 and 52.3661 and 51.7462
  Normalized data of Figure 5b: 53.3499 and 60.9077 and 57.5176
  Raw data of Figure 5b: 453.965 and 510.335 and 480.171
CBPA11-v1, A-1155463 10000 nM
  Normalized data Figure 5e: 19.9955 and 19.9571 and 22.5422
  Normalized data of Figure 5b: 33.8321 and 33.8547 and 35.5742
  Raw data of Figure 5b: 287.884 and 283.663 and 296.982
  Raw data of Independent repeat of CBPA11-v1 vs CBPA11-v1-LD3v3: 129.42 and 154.739 and 117.07
CBPA11-v1-BclXLv2, A-1155463 1 nM
  Normalized data Figure 5e: 21.782 and 18.7434 and 19.0174
CBPA11-v1-BclXLv2, A-1155463 3.18 nM
  Normalized data Figure 5e: 30.7821 and 38.1789 and 36.4445
CBPA11-v1-BclXLv2, A-1155463 10 nM
  Normalized data Figure 5e: 85.4791 and 79.6848 and 85.0591
CBPA11-v1-BclXLv2, A-1155463 31.8 nM
  Normalized data Figure 5e: 84.8971 and 95.7911 and 86.6879
CBPA11-v1-BclXLv2, A-1155463 100 nM
  Normalized data Figure 5e: 100 and 90.6768
CBPA11-v1-BclXLv2, A-1155463 318 nM
  Normalized data Figure 5e: 91.2979 and 98.815 and 100
CBPA11-v1-BclXLv2, A-1155463 1000 nM
  Normalized data Figure 5e: 86.9949 and 91.0394 and 83.6084
CBPA11-v1-BclXLv2, A-1155463 3180 nM
  Normalized data Figure 5e: 69.3324 and 72.9533 and 70.3736
CBPA11-v1-BclXLv2, A-1155463 10000 nM
  Normalized data Figure 5e: 38.0946 and 36.2941 and 35.5843
CBPA11-v1-LD3v3, A-1155463 0.01 nM
  Raw data of Independent repeat of CBPA11-v1 vs CBPA11-v1-LD3v3: 17.2788 and 15.3201 and 15.4842
